We go through four compounds from patent publication US20250221991A1, “COMBINATION THERAPY FOR THE TREATMENT OF CANCER METASTASES” (University of Cincinnati, priority 2024, published 2025).

Assay [1] deals with PANC-1 cells. Put plainly: Deadherent survival (WST-1, poly-HEMA vs plastic), PANC-1. In kind it is cell-based, human. The procedure: (§1) Cells were seeded at a density of 10^4 cells/well in 96-well plates, either uncoated or in poly(2-hydroxyethyl methacrylate) (poly-HEMA) coated wells (3 mg of poly-HEMA in 50 μL 95% ethanol, let dry overnight, then washed twice with PBS, followed by one wash with medium before initiation of the experiment). Drugs were added in triplicates at the indicated concentrations for an incubation time of 48 h. At the 48-h time point, the indicator WST-1 was added to each well at 10% v/v final concentration. At the 60-, 80-, and 120-minute time points, the absorbance was measured at 450 nm using a MRX-TC Revelation plate reader.

Assay [2] relates to MDA-MB-231 cells. Put plainly: Deadherent survival (WST-1, poly-HEMA vs plastic), MDA-MB-231. In kind it is cell-based. Conditions: for concentration range of significant growth inhibition on poly-HEMA: deadherent cells. The procedure: as §1
A general note: Tetrazolium assays rely on reduction of a dye to a coloured formazan, in cell work by metabolically active cells.

Assay [3] has as its system MIA PaCa-2 cells. Put plainly: Soft agar colony formation, MIA PaCa-2. Format: cell-based, human. As to the method:
(§2) The capability of cells to grow under anchorage-independent conditions is a hallmark of transformation and correlates with tumor progression in vivo. The assay was performed in a 60-mm dish with a bottom layer of 2 mL 0.5% agar (Noble Agar, Sigma) in the culture medium that is designated to the cells. The bottom agar was allowed to be solidified in the biosafety cabinet. Cells were suspended in 0.2% agar for PANC-1 cells, MIA PaCa-2 cells, and B16-F10 cells, but in 0.15% agar for MDA-MB-231 cells and 4T1 cells and then plated (1×10^5 cells/2 mL/dish) on top of the bottom layer. 400 μL culture medium with or without the indicated doses of drug treatment was added to cover the top agar layer every other day over 2 weeks for PANC-1, MIA PaCa-2 cells and over 3 weeks for MDA-MB-231 cells, respectively. The colonies in five microscopic fields (top, bottom, left, right and center) of each dish were photographed. […] Each treatment was repeated thrice.

Assay [4] concerns PANC-1 cells. As to the kind of experiment: Soft agar colony formation, PANC-1. In kind it is cell-based, human. As to the method:
as §2

Assay [5] relates to MIA PaCa-2 cells. As to the kind of experiment: Deadherent survival (WST-1, poly-HEMA vs plastic), MIA PaCa-2. In kind it is cell-based, human. The procedure:
as §1

For assay [6], the system named is MDA-MB-231 cells. As to the kind of experiment: Soft agar colony formation, MDA-MB-231. In kind it is cell-based. The procedure:
as §2

Setting [7] is: same concentration range that completely suppressed soft agar colony formation.

Where “and” joins values, the source holds several entries; their conditions need not be identical. Equal entries are not always repeated.

Take `C[S+](C)[O-]` [DMSO, dimethyl sulfoxide]: the “effect on growth when plated on plastic or on poly-HEMA” value in the assay with PANC-1 cells [1] (setting [7]), in the assay with MDA-MB-231 cells [2] (setting [7]) and with MIA PaCa-2 cells [5] (setting [7]) was “no effect” in each case. Further, the “soft agar colony frequency” value in the assay with MIA PaCa-2 cells [3] (0.125%-0.25% (v/v)) and in the assay with PANC-1 cells [4] (0.125%-0.25% (v/v)) was “without impacting” throughout.
For `CCCCNc1cc(C(=O)O)cc(S(N)(=O)=O)c1Oc1ccccc1` [bumetanide], in the assay with MDA-MB-231 cells [2] (48 h, WST-1), the “concentration suppressing both adherent and deadherent cells” value was “above 50 μg/mL”; the “concentration range of significant growth inhibition on poly-HEMA” value fell in the range of 15 to 35 µg/mL. The “effect on the same cells in the adherent (plated) state” value with MDA-MB-231 cells [2] (in the concentration range that significantly inhibits cells on poly-HEMA) is reported as “without affecting”. For the same compound, the “concentration range suppressing proliferation on poly-HEMA” value in the assay on MIA PaCa-2 cells [5] (deadherent cells) fell in the range of 1 to 5 µg/mL.
For the compound `[NH4+].[NH4+].[SH-].[SH-].[S]=[Mo]=[S]` [ammonium tetrathiomolybdate], the “inhibition of soft agar colony size” value in the assay on MDA-MB-231 cells [6] (0.5 μg/mL) was found to be 43%; with MDA-MB-231 cells [6] (1 μg/mL), 75%; with MDA-MB-231 cells [6] (2 μg/mL), 93%; with MDA-MB-231 cells [6] (4 μg/mL), 94%.
Regarding `Cc1ccc(Nc2nccc(N(C)c3ccc4c(C)n(C)nc4c3)n2)cc1S(N)(=O)=O` [pazopanib], the “concentration inhibiting growth under both conditions (adherent and deadherent)” value in the assay with PANC-1 cells [1] (48 h) was “Above 2 μg/mL”. The “concentration range increasing adherent cell growth” value in the assay on PANC-1 cells [1] (adherent cells, 48 h) was in the range of 0.4 to 2 µg/mL. Besides, the “starting concentration significantly decreasing growth of deadherent cells” value in the assay on PANC-1 cells [1] (poly-HEMA, 48 h) is at least 0.2 µg/mL. Further, the “concentration range of significant growth inhibition on poly-HEMA” value in the assay with MDA-MB-231 cells [2] (48 h, WST-1) fell in the range of 0.4 to 2.0 µg/mL. In addition, the “concentration at which inhibition of soft agar colony formation reaches significance” value with MDA-MB-231 cells [6] was 0.5 μM and 0.24 μg/mL; in the assay with PANC-1 cells [4], 0.25 μM and 0.12 μg/mL. The “concentration inhibiting soft agar colony formation” value in the assay on MIA PaCa-2 cells [3] is 2.1 μM and 1 μg/mL.
